Measurements published in patent US20160244437A1, “SUBSTITUTED PHENYLALANINE DERIVATIVES” (BAYER PHARMA AKTIENGESELLSCHAFT, priority 2013, published 2016).
Where a name gives a salt, the structure may show the parent alone.

Experiments:
[1] = target: T1, human factor XIa (Homo sapiens, UniProt P03951); assay: Measurement of FXIa inhibition (fluorogenic peptide substrate Boc-Glu(OBzl)-Ala-Arg-AMC); format: biochemical; conditions: factor XIa from Kordia 0.45 nM, 15 min pre-incubation, 30 min at 22° C., fluorescence
T1 construct: purchased Kordia

[2] = test system: human and animal plasma; assay: Determination of anticoagulatory activity: activated partial thromboplastin time (aPTT) in plasma; conditions: concentration of test substance which brings about a 1.5-fold extension of the aPTT; plasma in vitro, C.K. Prest kit
In short: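 Citrated plasma (human, mouse, rat, rabbit, pig, dog) incubated with varying compound concentrations and cephalin/kaolin PTT reagent for 3 minutes at 37° C.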

T1 sequence (P03951 388-625 limits assumed): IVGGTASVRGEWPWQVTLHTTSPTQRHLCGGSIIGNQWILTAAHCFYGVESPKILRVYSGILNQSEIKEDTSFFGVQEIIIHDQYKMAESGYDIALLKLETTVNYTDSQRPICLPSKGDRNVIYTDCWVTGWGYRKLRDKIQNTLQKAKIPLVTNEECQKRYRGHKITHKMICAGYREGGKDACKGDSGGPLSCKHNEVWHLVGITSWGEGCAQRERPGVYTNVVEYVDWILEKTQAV
T1 sequence (P03951 19-387 partner limits assumed): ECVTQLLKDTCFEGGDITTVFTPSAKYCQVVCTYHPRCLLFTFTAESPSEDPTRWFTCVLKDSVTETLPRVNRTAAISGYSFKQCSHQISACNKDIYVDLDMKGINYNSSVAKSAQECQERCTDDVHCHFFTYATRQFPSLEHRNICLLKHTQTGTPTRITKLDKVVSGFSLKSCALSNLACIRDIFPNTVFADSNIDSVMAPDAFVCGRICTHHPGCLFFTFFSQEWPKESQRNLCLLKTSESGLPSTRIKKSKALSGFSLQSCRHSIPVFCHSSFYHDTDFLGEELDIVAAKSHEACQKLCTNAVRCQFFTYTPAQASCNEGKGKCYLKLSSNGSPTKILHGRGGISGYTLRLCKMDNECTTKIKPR

IC50 [1] [nM] | Compound | aPTT [2] [µmol/L]
1.9 | NC[C@H]1CC[C@H](C(=O)N[C@@H](Cc2cccc(-c3ccccc3S(=O)(=O)N3CCOCC3)c2)C(=O)Nc2ccc(-c3nn[nH]n3)cc2)CC1 [Example 54, trans-4-(Aminomethyl)-N-[(2S)-3-[2′-(morpholin-4-ylsulphonyl)biphenyl-3-yl]-1-oxo-1-{[4-(2H-tetrazol-5-yl)phenyl]amino}propan-2-yl]cyclohexanecarboxamide hydrochloride] | 0.28
4.3 | Cc1cc(S(=O)(=O)NC2CCNCC2)ccc1-c1cccc(C[C@H](NC(=O)[C@H]2CC[C@H](CN)CC2)C(=O)Nc2ccc(-c3nnc(Cl)[nH]3)cc2)c1 [Example 55, trans-4-(Aminomethyl)-N-{(2S)-1-{[4-(3-chloro-4H-1,2,4-triazol-5-yl)phenyl]amino}-3-[2′-methyl-4′-(piperidin-4-ylsulphamoyl)biphenyl-3-yl]-1-oxopropan-2-yl}cyclohexanecarboxamide hydrochloride] | 0.14
15 | COc1ccc(C[C@H](NC(=O)[C@H]2CC[C@H](CN)CC2)C(=O)Nc2ccc(-c3nn[nH]n3)cc2)cc1-c1ccc(C(=O)NC2CCNCC2)cc1C [Example 56, 5′-[(2S)-2-({[trans-4-(Aminomethyl)cyclohexyl]carbonyl}amino)-3-oxo-3-{[4-(2H-tetrazol-5-yl)phenyl]amino}propyl]-2′-methoxy-2-methyl-N-(piperidin-4-yl)biphenyl-4-carboxamide hydrochloride] | 0.28
17 | COc1ccc(C[C@H](NC(=O)[C@H]2CC[C@H](CN)CC2)C(=O)Nc2ccc(-c3nn[nH]n3)cc2)cc1-c1ccc(C(=O)N[C@@H]2CCNC2)cc1C [Example 57, 5′-[(2S)-2-({[trans-4-(Aminomethyl)cyclohexyl]carbonyl}amino)-3-oxo-3-{[4-(2H-tetrazol-5-yl)phenyl]amino}propyl]-2′-methoxy-2-methyl-N-[(3R)-pyrrolidin-3-yl]biphenyl-4-carboxamide hydrochloride] | 0.3
17 | COc1ccc(C[C@H](NC(=O)[C@H]2CC[C@H](CN)CC2)C(=O)Nc2ccc(-c3nn[nH]n3)cc2)cc1-c1ccc(C(=O)NCCN)cc1C [Example 58, N-(2-Aminoethyl)-5′-[(2S)-2-({[trans-4-(aminomethyl)cyclohexyl]carbonyl}amino)-3-oxo-3-{[4-(2H-tetrazol-5-yl)phenyl]amino}propyl]-2′-methoxy-2-methylbiphenyl-4-carboxamide hydrochloride] | 0.3
7.2 | CN(C)CCCOc1ccc(-c2cccc(C[C@H](NC(=O)[C@H]3CC[C@H](CN)CC3)C(=O)Nc3ccc(-c4nnn[nH]4)cc3)c2)cn1 [Example 59, N-alpha-{[trans-4-(Aminomethyl)cyclohexyl]carbonyl}-3-{6-[3-(dimethylamino)propoxy]pyridin-3-yl}-N-[4-(1H-tetrazol-5-yl)phenyl]-L-phenylalaninamide hydrochloride] | 0.19
12 | NC[C@H]1CC[C@H](C(=O)N[C@@H](Cc2cccc(-c3cccc(C(=O)NCCN4CCCC4)c3)c2)C(=O)Nc2ccc(-c3nnn[nH]3)cc2)CC1 [Example 61, 3′-[(2S)-2-({[trans-4-(Aminomethyl)cyclohexyl]carbonyl}amino)-3-oxo-3-{[4-(1H-tetrazol-5-yl)phenyl]amino}propyl]-N-[2-(pyrrolidin-1-yl)ethyl]biphenyl-3-carboxamide hydrochloride] | 0.37
6.2 | CNC(=O)c1ccc(F)c(-c2cccc(C[C@H](NC(=O)[C@H]3CC[C@H](CN)CC3)C(=O)Nc3ccc(-c4nnn[nH]4)cc3)c2)c1 [Example 62, 3′-[(2S)-2-({[trans-4-(Aminomethyl)cyclohexyl]carbonyl}amino)-3-oxo-3-{[4-(1H-tetrazol-5-yl)phenyl]amino}propyl]-6-fluoro-N-methylbiphenyl-3-carboxamide hydrochloride] | 0.48
5.2 | Cc1cc(C(=O)NC2CCC(N(C)C)CC2)ccc1-c1cccc(C[C@H](NC(=O)[C@H]2CC[C@H](CN)CC2)C(=O)Nc2ccc(-c3nnn[nH]3)c(F)c2)c1 (stereo partly drawn) [Example 64, 3′-[(2S)-2-({[trans-4-(Aminomethyl)cyclohexyl]carbonyl}amino)-3-{[3-fluoro-4-(1H-tetrazol-5-yl)phenyl]amino}-3-oxopropyl]-N-[4-(dimethylamino)cyclohexyl]-2-methylbiphenyl-4-carboxamide hydrochloride] | 0.12
3.3 | Cc1nc(N)ccc1-c1cccc(C[C@H](NC(=O)[C@H]2CC[C@H](CN)CC2)C(=O)Nc2ccc(-c3nnn[nH]3)cc2)c1 [Example 66, N-alpha-{[trans-4-(Aminomethyl)cyclohexyl]carbonyl}-3-(6-amino-2-methylpyridin-3-yl)-N-[4-(1H-tetrazol-5-yl)phenyl]-L-phenylalaninamide hydrochloride] | 0.12
37 | NC[C@H]1CC[C@H](C(=O)N[C@@H](Cc2cccc(-c3cnc(N4CCNCC4)nc3)c2)C(=O)Nc2ccc3[nH]c(=O)[nH]c3c2)CC1 [Example 67, N-alpha-{[trans-4-(Aminomethyl)cyclohexyl]carbonyl}-N-(2-oxo-2,3-dihydro-1H-benzimidazol-5-yl)-3-[2-(piperazin-1-yl)pyrimidin-5-yl]-L-phenylalaninamide hydrochloride] | 0.15
7.3 | NC[C@H]1CC[C@H](C(=O)N[C@@H](Cc2cccc(-c3cnc(N4CCNCC4)nc3)c2)C(=O)Nc2ccc(-c3nnn[nH]3)cc2)CC1 [Example 68, N-alpha-{[trans-4-(Aminomethyl)cyclohexyl]carbonyl}-3-[2-(piperazin-1-yl)pyrimidin-5-yl]-N-[4-(1H-tetrazol-5-yl)phenyl]-L-phenylalaninamide hydrochloride] | 0.18
2.9 | CN(C)c1ncc(-c2cccc(C[C@H](NC(=O)[C@H]3CC[C@H](CN)CC3)C(=O)Nc3ccc(-c4nnn[nH]4)cc3)c2)cn1 [Example 70, N-alpha-{[trans-4-(Aminomethyl)cyclohexyl]carbonyl}-3-[2-(dimethylamino)pyrimidin-5-yl]-N-[4-(1H-tetrazol-5-yl)phenyl]-L-phenylalaninamide hydrochloride] | 0.36
2.3 | CN(C)c1ncc(-c2cccc(C[C@H](NC(=O)[C@H]3CC[C@H](CN)CC3)C(=O)Nc3ccc(-c4nnn[nH]4)cc3)c2)c(OCc2ccccc2)n1 [Example 78, N-alpha-{[trans-4-(Aminomethyl)cyclohexyl]carbonyl}-3-[4-(benzyloxy)-2-(dimethylamino)pyrimidin-5-yl]-N-[4-(1H-tetrazol-5-yl)phenyl]-L-phenylalaninamide hydrochloride] | 0.19
2.3 | NC[C@H]1CC[C@H](C(=O)N[C@@H](Cc2cccc(-c3cnc(N)nc3)c2)C(=O)Nc2ccc(-c3nnn[nH]3)cc2)CC1 [Example 79, N-alpha-{[trans-4-(Aminomethyl)cyclohexyl]carbonyl}-3-(2-aminopyrimidin-5-yl)-N-[4-(1H-tetrazol-5-yl)phenyl]-L-phenylalaninamide hydrochloride] | 0.14
2.4 | Cc1cnccc1-c1cccc(C[C@H](NC(=O)[C@H]2CC[C@H](CN)CC2)C(=O)Nc2ccc(-c3nnn[nH]3)cc2)c1 [Example 80, N-alpha-{[trans-4-(Aminomethyl)cyclohexyl]carbonyl}-3-(3-methylpyridin-4-yl)-N-[4-(1H-tetrazol-5-yl)phenyl]-L-phenylalaninamide hydrochloride] | 0.25
2.5 | NC[C@H]1CC[C@H](C(=O)N[C@@H](Cc2cccc(-c3cccnc3C(F)(F)F)c2)C(=O)Nc2ccc(-c3nnn[nH]3)cc2)CC1 [Example 81, N-alpha-{[trans-4-(Aminomethyl)cyclohexyl]carbonyl}-N-[4-(1H-tetrazol-5-yl)phenyl]-3-[2-(trifluoromethyl)pyridin-3-yl]-L-phenylalaninamide hydrochloride] | 0.3
3.4 | NC[C@H]1CC[C@H](C(=O)N[C@@H](Cc2cccc(-c3cnc(NC4CC4)nc3)c2)C(=O)Nc2ccc(-c3nnn[nH]3)cc2)CC1 [Example 82, N-alpha-{[trans-4-(Aminomethyl)cyclohexyl]carbonyl}-3-[2-(cyclopropylamino)pyrimidin-5-yl]-N-[4-(1H-tetrazol-5-yl)phenyl]-L-phenylalaninamide hydrochloride] | 0.14
1.3 | Cc1ccc2[nH]ncc2c1-c1cccc(C[C@H](NC(=O)[C@H]2CC[C@H](CN)CC2)C(=O)Nc2ccc(-c3nnn[nH]3)cc2)c1 [Example 83, N-alpha-{[trans-4-(Aminomethyl)cyclohexyl]carbonyl}-3-(5-methyl-1H-indazol-4-yl)-N-[4-(1H-tetrazol-5-yl)phenyl]-L-phenylalaninamide hydrochloride] | 0.17
2.5 | CC(=O)Nc1ccc(Cl)c(-c2cccc(C[C@H](NC(=O)[C@H]3CC[C@H](CN)CC3)C(=O)Nc3ccc(-c4nnn[nH]4)cc3)c2)c1 [Example 86, trans-N-[(2S)-3-[5′-(Acetylamino)-2′-chlorobiphenyl-3-yl]-1-oxo-1-{[4-(1H-tetrazol-5-yl)phenyl]amino}propan-2-yl]-4-(aminomethyl)cyclohexanecarboxamide hydrochloride] | 0.24

Compound | IC50 [1] [nM] | aPTT [2] [µmol/L]
Cc1ccc(S(=O)(=O)NCc2ccccc2)cc1-c1cccc(C[C@H](NC(=O)[C@H]2CC[C@H](CN)CC2)C(=O)Nc2ccc(-c3noc(=O)[nH]3)cc2)c1 [Example 60, trans-4-(Aminomethyl)-N-[(2S)-3-[5′-(benzylsulphamoyl)-2′-methylbiphenyl-3-yl]-1-oxo-1-{[4-(5-oxo-4,5-dihydro-1,2,4-oxadiazol-3-yl)phenyl]amino}propan-2-yl]cyclohexanecarboxamide hydrochloride] | 1.4 | 0.21
